Columns and labels:
[1] = tested on: zona pellucida (ZP) of human oocytes; assay: Human sperm-zona pellucida interaction (sperm-egg binding) test; format: cell-based; details: 10 nM JN
Text: We used the Human sperm-zona pellucida interaction test that is designed to determine the capacity of sperm to interact with the zona pellucida (ZP) of human oocytes and serves thus as a test for evaluating fertility potential of human spermatozoa. The tests provide important diagnostic information about sperm fertilising ability and we used a modified version of the test developed by Liu and Baker (Liu and Baker hum reprod 1999 Defective sperm-zona pellucida interaction: a major cause of failure of fertilization in clinical in-vitro fertilization).
If the oocyte had sperm bound to the ZP from the IVF insemination, these were removed by aspiration using a fine glass pipette with an inner diameter (120 μm) slightly smaller than the oocyte diameter. […] Oocytes with >10 sperm penetrating the ZP were not used. Also degenerate, activated or morphologically abnormal oocytes were not used for the sperm-ZP interaction test. Oocytes were pooled from several patients and used for the test on the same day or kept in the incubator and used within the next 20 days. Between 15-30 oocytes was placed in 1 ml salt solution (storage 2-4 weeks). Salt-stored human oocytes were washed with gamete buffer (COOK) with four changes in 3 hours before they were used for the sperm-egg binding test.
Semen samples from five donors were used. […] The washed sperm pellet was resuspended with sEBSS to a sperm concentration of 2×10^6/ml for the ZP-interaction test. For the assessment of the sperm concentration the samples were diluted following the manufactures instruction and subsequently determined using SP-100 (Chemometec).
For the sperm-ZP interaction tests, either high quality sperm or total sperm sample (2×10^6) in 0.5 ml of medium (+/−1 nM Calcitriol) were incubated with three oocytes for 2 h at 37° C. in 5% CO2 in air. After incubation, the oocytes were transferred to sEBSS and washed by repeated aspiration with a glass pipette (inside diameter approximately 250 μm) to dislodge sperm loosely adhering to the surface of the ZP. Sperm binding to all oocytes was assessed.

human spermatozoa = assay: Sperm motility of washed spermatozoa with or without percoll gradient centrifugation; format: cell-based; details: 10 nM JN
VDR-ap = biological target: T1, VDR-ap (Homo sapiens, UniProt P11473); details: cited from earlier work
T1 sequence (P11473 1-427): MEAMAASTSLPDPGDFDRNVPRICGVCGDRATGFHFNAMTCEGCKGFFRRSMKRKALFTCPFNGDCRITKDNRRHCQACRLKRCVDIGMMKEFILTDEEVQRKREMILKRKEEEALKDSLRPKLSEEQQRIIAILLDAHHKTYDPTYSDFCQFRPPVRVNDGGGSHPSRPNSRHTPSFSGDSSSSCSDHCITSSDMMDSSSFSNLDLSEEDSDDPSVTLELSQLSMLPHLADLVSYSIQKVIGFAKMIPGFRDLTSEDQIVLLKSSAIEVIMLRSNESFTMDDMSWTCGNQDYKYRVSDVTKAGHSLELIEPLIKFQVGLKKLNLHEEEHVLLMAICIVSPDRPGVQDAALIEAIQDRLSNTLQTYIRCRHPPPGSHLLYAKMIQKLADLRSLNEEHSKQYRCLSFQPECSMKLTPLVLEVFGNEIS

mean number of spermatozoa bound to each oocyte ([1]; 1 donor (vehicle mean 37)): 65
difference in sperm-egg binding versus vehicle ([1]; separated by percoll gradient centrifugation): 300%
average improvement of sperm-egg binding versus vehicle ([1]; without percoll gradient centrifugation): 11%
Structure (SMILES): C[C@H](CCCC(C)(C)O)[C@H]1CC[C@H]2C3=CC=C4C[C@@H](O)C[C@H](O)[C@@]4(C)[C@@H]3CC[C@]12C [JN, 1α,25(OH)2-lumisterol]
motile sperm (human spermatozoa; 60 minutes, isolated by percoll gradient centrifugation (from 69%)): 72%
sperm motility (mean) (human spermatozoa; 60 minutes, no percoll centrifugation (vehicle mean 34)): 46
change in proportion of motile sperm (human spermatozoa; 24 hours at room temperature, with and without percoll, not substantially different from vehicle): modest decrease
affinity for VDR-ap (VDR-ap): same affinity as 1,25(OH)2D3

Reference: patent US20140100419A1, “ACTIVE VITAMIN D OR ANALOGS THEREOF FOR USE IN IN VIVO OR IN VITRO FERTILIZATION” (priority 2011, published 2014)
